Assay results as given in US10624340B2, “Chemical combinations for attracting Vespidae” (priority 2017, dated 2020).
Several values for one entry are separate records, joined by “and”; a condition that tells them apart may be missing. Equal entries are not always repeated.

Key:
Format in all cases: in vivo, V. pensylvanica
[1] = test system: Vespidae; assay: Box attraction test of single test agents (Example 1); conditions: 500 μL test agent in white box, 15 min tests, two tests, San Mateo County, July 2016; acetic acid 5%, citric acid 750 mM, ethanol 40%
[2] = test system: Vespidae; assay: Box attraction test of heptyl butyrate with citric, malic or tartaric acid (Experiment 3); conditions: 500 μL of each agent, white box, 15 min tests, three tests, July 2017, acid alone, heptyl butyrate alone and combination run together, * P < 0.05 vs heptyl butyrate alone
Method: Materials and Methods. The third experiment evaluated combinations of heptyl butyrate and citric acid, malic acid, and tartaric acid versus heptyl butyrate alone as baits for Vespidae.
Attraction Measurements. Testing the efficacy of attraction of the chemicals was conducted using an apparatus that allows visualization of the Vespidae to an area with the attractant. This can be prepared in a variety of ways including the use of white 4-sided boxes in which the different attractants are placed at the bottom of the box. Attraction of the Vespidae to the boxes is visualized and Vespidae are counted when they fly into the plane of the box toward the attractant. Each experiment lasted 15 minutes and every 5 minutes, the boxes would be cleared of Vespidae and rotated counterclockwise to eliminate any possible effect of direction. Each experiment was conducted three times over the course of one day, for a total of 9 replicates per test.
Boxes were prepared using white paper (one foot square) and applying them to equal sizes of cardboard to create a 4-sided box with the white paper in the inside of the box. Boxes were placed in a triangle pattern on the ground and spaced equally three to four feet apart. Disposable plates with clipped-on absorbent material in them were placed in the bottom on the boxes. Each tested combination of attractants was poured onto the absorbent material on the plate and placed into a testing box.
Chemical Treatments. Four chemical treatments were selected and combined with heptyl butyrate and compared to heptyl butyrate alone as baits for Vespidae. Chemicals combined with heptyl butyrate included citric acid solution (5 grams in 50 mLs of water), malic acid (6 grams in 50 mLs of water), and tartaric acid (7 grams in 50 mLs of water). Experiment 3 used 500 μL of each test agent combined for a total of 1000 μL total volume in each test. The heptyl butyrate test used 500 μL of water and 500 µL of heptyl butyrate.

[3] = test system: Vespidae; assay: 14-day trapping test in RESCUE Reusable Yellowjacket traps (Experiment 4); conditions: 2 mL heptyl butyrate with or without 2 mL acid solution in trap, hung 14 days, counted day 15
Method: Materials and Methods. The fourth experiment evaluated combinations of heptyl butyrate and citric acid, malic acid, and tartaric acid versus heptyl butyrate alone as baits for Vespidae. Heptyl butyrate was included for comparison because of its known attractiveness to V. pensylvanica (Davis et al., 1969, Supra).
Attraction Measurements. Testing the efficacy of attraction of the chemicals was conducted using four standard commercially-available RESCUE Reusable Yellowjacket® traps filled with the various test agents. In this experiment, the traps were set and hung 5-6 feet off of the ground with all traps separated by 3-4 feet from one another. Chemical treatments were added to the attractant chambers (cotton absorbant material) of the trap and hung for 14 days. Measurements of the number of trapped Vespidae were made on day 15.
Chemical Treatments. Four chemical treatments were selected and combined with heptyl butyrate and compared to heptyl butyrate alone as baits for Vespidae. Chemicals combined with heptyl butyrate included citric acid solution (5 grams in 50 mLs of water), malic acid (6 grams in 50 mLs of water), and tartaric acid (7 grams in 50 mLs of water). Experiment 4 used 2 mL of the standard attractant (heptyl butyrate) as is found in the RESCUE reusable yellowjacket traps for the heptyl butyrate alone test. […]

In the case of CC(=O)O [Acetic Acid, acetic acid], the “Total Number of Vespidae Attracted to Single Test Agents, Sum Test 1 + 2” value (“Total Number … Sum Test 1 + 2” for short) [1] is reported as 2.

For O=C(O)CC(O)(CC(=O)O)C(=O)O [Citric Acid, citric acid], the “Total Number … Sum Test 1 + 2” value [1] was 10 and the “Total Number of Vespidae Attracted to Different Test Conditions” value (“Total Number … to Different Test Conditions” below) [2] was 22.

In the case of CC(O)C(=O)O (stereo not shown) [Lactic Acid, lactic acid], the “Total Number … Sum Test 1 + 2” value [1] is reported as 5.

For CC(C)CO [Isobutanol, isobutanol], the “Total Number … Sum Test 1 + 2” value [1] was 21.

CCO [Ethanol, ethanol] was tested, and the “Total Number … Sum Test 1 + 2” value [1] was 2.

With CCCC(=O)O [Butyric Acid, butyric acid] the “Total Number … Sum Test 1 + 2” value [1] was 5.

O=C(O)CC(O)C(=O)O (stereo not shown) [Malic Acid, malic acid] was tested, and the “Total Number … to Different Test Conditions” value [2] was 19.

With O=C(O)C(O)C(O)C(=O)O (stereo not shown) [Tartaric Acid, tartaric acid] the “Total Number … to Different Test Conditions” value [2] was 15.

With CCCCCCCOC(=O)CCC [Heptyl Butyrate, heptyl butyrate] the “Total Number of V. Pensylvanica (Vespidae) Trapped During a 14-Day Test” value [3] was 91, the “Total Number … Sum Test 1 + 2” value [1] was 343 and the “Total Number … to Different Test Conditions” value [2] was 355 and 590 and 477. The “Total Number … to Different Test Conditions” value ([2]; listed as heptyl butyrate) was 477 and 355 and 590.
